Data as given in ChEMBL document CHEMBL5291721, “A preclinical secondary pharmacology resource illuminates target-adverse drug reaction associations of marketed drugs” (Nat Commun, 2023).

What was measured:
[1] = target: T1, Amine oxidase [flavin-containing] A (Homo sapiens, UniProt P21397); type: functional
T1 sequence (P21397 whole entry): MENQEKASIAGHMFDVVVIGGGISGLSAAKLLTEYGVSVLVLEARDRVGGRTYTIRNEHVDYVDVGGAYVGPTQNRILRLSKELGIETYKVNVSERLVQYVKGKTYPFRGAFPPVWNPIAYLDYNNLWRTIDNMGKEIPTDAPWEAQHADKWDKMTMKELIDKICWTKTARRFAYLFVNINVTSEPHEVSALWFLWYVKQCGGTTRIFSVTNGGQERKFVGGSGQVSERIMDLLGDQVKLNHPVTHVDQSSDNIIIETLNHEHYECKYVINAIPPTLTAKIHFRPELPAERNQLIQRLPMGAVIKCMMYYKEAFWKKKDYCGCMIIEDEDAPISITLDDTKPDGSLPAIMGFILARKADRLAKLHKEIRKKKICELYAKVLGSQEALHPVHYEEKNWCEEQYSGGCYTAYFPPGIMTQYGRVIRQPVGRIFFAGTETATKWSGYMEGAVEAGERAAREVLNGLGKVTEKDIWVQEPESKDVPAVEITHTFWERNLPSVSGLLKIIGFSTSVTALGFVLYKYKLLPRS

Thromboxane A2 receptor = target: T2, Thromboxane A2 receptor (Homo sapiens, UniProt P21731)
T2 sequence (P21731 whole entry): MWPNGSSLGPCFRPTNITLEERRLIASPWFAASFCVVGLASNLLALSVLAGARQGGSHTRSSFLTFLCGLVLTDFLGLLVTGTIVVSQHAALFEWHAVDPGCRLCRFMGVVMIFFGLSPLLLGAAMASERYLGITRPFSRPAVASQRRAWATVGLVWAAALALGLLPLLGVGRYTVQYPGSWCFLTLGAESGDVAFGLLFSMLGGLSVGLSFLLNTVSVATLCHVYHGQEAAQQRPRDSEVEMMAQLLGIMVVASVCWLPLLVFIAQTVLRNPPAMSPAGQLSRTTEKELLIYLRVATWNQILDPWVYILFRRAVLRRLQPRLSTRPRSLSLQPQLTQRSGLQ

Cannabinoid receptor 1 = Cannabinoid receptor 1 (Homo sapiens, UniProt P21554); type: functional, cell-based
Cannabinoid receptor 1, sequence (P21554 whole entry): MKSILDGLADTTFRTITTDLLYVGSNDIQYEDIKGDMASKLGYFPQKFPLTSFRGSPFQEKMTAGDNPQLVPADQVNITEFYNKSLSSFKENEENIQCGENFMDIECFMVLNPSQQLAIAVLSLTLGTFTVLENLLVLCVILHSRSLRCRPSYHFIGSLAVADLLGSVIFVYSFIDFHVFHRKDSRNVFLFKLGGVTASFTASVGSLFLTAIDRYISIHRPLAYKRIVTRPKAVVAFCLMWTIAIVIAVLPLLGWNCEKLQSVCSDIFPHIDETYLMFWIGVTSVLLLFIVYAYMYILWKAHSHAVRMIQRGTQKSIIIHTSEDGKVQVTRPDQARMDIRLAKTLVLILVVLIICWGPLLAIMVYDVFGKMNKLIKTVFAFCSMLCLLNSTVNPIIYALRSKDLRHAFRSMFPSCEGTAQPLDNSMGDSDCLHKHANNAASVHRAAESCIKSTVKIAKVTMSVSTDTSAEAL

[2] = target: T3, Muscarinic acetylcholine receptor M1 (Homo sapiens, UniProt P11229); type: functional
T3 sequence (P11229 whole entry): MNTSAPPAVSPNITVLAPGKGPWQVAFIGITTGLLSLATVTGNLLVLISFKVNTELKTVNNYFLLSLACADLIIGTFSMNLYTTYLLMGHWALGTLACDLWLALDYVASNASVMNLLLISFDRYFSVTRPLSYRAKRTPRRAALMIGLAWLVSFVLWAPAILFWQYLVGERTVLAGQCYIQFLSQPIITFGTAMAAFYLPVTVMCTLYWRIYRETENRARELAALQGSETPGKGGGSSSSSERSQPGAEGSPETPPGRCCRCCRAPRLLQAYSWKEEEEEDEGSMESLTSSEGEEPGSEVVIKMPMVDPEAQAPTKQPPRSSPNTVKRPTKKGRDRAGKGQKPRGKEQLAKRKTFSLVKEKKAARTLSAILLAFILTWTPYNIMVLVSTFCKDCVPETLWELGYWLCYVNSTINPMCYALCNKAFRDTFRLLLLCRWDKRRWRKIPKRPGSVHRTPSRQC

Estrogen receptor = target: T4, Estrogen receptor (Homo sapiens, UniProt P03372)
T4 sequence (P03372 whole entry): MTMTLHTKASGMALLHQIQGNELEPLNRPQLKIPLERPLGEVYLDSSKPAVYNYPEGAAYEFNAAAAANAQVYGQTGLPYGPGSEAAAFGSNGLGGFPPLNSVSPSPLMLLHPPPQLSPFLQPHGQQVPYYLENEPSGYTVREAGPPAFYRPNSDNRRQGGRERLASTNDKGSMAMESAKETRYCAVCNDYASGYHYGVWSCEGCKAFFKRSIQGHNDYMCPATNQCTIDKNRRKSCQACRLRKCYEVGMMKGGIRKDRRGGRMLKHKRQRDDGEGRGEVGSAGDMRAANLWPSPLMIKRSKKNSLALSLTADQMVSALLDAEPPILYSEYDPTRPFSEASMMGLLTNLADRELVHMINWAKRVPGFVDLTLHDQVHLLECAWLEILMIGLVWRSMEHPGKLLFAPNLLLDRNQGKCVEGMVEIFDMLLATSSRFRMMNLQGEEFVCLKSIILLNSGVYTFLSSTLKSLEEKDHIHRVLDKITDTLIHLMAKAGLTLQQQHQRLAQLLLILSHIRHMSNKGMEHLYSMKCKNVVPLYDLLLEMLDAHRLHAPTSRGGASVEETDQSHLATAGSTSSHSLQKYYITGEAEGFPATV

[3] = target: Voltage-dependent L-type calcium channel subunit alpha-1C (Rattus norvegicus, UniProt P22002); type: functional
Voltage-dependent L-type calcium channel subunit alpha-1C, sequence (P22002 whole entry): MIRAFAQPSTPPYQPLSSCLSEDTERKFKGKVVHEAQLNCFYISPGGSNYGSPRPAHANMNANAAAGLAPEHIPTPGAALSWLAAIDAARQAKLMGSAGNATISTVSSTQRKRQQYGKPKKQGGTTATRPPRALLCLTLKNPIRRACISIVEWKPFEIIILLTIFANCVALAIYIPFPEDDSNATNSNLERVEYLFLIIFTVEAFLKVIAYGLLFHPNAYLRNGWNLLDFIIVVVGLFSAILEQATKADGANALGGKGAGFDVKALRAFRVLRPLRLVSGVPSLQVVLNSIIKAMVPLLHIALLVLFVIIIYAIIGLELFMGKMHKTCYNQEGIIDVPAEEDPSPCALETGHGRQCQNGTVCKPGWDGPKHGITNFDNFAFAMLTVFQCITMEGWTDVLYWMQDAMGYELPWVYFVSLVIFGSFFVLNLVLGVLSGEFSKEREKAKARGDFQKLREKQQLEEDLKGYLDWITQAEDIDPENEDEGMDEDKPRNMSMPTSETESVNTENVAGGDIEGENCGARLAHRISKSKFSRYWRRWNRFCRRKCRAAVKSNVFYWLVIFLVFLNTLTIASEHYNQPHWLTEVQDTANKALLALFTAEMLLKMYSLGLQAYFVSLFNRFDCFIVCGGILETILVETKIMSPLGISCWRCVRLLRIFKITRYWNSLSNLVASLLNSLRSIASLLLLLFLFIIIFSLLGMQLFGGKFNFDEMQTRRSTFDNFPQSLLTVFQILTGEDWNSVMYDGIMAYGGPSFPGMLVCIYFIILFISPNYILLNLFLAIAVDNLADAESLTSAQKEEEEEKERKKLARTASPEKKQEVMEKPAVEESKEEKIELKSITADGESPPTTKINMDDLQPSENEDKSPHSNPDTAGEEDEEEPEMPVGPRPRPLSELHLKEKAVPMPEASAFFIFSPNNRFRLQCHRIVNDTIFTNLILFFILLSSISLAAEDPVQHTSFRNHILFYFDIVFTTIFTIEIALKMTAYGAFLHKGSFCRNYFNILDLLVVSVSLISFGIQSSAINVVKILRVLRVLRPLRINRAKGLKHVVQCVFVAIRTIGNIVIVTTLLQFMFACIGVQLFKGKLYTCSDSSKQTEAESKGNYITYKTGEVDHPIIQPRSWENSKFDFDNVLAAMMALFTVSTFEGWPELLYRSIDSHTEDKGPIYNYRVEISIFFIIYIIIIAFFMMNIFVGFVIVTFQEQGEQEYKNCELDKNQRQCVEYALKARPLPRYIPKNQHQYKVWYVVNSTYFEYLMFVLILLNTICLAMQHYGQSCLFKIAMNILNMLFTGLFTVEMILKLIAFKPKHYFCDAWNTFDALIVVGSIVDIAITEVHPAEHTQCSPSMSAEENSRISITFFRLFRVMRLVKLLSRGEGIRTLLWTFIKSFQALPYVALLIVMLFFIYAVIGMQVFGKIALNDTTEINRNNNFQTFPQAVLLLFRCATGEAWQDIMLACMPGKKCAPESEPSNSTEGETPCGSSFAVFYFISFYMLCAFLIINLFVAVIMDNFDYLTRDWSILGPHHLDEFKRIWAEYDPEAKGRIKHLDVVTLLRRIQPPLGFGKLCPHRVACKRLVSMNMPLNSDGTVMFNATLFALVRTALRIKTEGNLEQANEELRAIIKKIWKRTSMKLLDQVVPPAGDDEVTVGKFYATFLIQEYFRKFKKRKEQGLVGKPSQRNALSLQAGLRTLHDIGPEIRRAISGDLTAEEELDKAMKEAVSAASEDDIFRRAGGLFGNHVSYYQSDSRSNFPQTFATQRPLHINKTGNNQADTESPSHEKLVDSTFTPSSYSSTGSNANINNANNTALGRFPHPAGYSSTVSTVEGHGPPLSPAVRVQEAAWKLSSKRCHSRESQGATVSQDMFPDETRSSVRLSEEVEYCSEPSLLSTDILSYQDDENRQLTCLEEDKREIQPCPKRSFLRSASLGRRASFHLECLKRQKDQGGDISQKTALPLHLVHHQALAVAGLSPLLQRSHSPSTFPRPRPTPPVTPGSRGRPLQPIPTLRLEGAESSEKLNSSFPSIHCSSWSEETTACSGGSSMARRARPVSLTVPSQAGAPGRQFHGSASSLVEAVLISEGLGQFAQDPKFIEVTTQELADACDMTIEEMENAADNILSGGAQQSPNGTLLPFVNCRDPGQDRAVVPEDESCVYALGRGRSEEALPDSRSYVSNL

Melanocortin receptor 3 = Melanocortin receptor 3 (Homo sapiens, UniProt P41968)
Melanocortin receptor 3, sequence (P41968 whole entry): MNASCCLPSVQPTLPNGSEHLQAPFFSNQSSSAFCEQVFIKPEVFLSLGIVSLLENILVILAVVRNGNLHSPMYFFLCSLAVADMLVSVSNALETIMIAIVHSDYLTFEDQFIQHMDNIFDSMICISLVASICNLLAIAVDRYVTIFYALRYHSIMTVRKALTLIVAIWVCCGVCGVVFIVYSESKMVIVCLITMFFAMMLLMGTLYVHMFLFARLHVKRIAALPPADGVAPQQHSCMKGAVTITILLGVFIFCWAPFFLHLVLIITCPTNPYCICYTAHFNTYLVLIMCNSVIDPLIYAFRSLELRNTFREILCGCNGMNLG

[4] = target: T5, 5-hydroxytryptamine receptor 1A (Homo sapiens, UniProt P08908); type: functional, cell-based
T5 sequence (P08908 whole entry): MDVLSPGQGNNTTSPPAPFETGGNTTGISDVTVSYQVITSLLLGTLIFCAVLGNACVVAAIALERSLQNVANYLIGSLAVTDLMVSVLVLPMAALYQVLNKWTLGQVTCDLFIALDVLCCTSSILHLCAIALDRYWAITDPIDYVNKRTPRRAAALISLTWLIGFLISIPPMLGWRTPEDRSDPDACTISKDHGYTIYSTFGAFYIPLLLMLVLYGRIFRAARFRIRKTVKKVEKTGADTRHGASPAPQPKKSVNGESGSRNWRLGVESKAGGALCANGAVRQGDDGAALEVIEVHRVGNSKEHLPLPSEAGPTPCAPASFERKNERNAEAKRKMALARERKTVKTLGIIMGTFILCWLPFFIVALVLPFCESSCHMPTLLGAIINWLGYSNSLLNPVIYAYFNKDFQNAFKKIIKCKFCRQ
Also: assay procedure not described here.

COc1ccccc1N1CCN(CCCNc2cc(=O)n(C)c(=O)n2C)CC1
AC50 [1]: > 30 µM
AC50 (Thromboxane A2 receptor): > 30 µM
AC50 (Cannabinoid receptor 1): > 30 µM
AC50 [2]: > 30 µM
AC50 (Estrogen receptor): > 30 µM
AC50 [3]: > 30 µM
AC50 (Melanocortin receptor 3): > 30 µM

CC(=O)OCC(=O)[C@@]12N=C(C)O[C@@H]1C[C@H]1[C@@H]3CCC4=CC(=O)C=C[C@]4(C)[C@H]3[C@@H](O)C[C@@]12C [DEFLAZACORT]
AC50 [1]: > 30 µM
AC50 (Thromboxane A2 receptor): > 30 µM
AC50 (Cannabinoid receptor 1): > 30 µM
AC50 [2]: > 30 µM
AC50 (Estrogen receptor): > 30 µM
AC50 [3]: > 30 µM
AC50 (Melanocortin receptor 3): > 30 µM

COc1cc2c(N)nc(N3CCN(C(=O)OCC(C)(C)O)CC3)nc2c(OC)c1OC [TRIMAZOSIN]
AC50 [1]: > 30 µM
AC50 (Thromboxane A2 receptor): > 30 µM
AC50 (Cannabinoid receptor 1): > 30 µM
AC50 [2]: > 30 µM
AC50 (Estrogen receptor): > 30 µM
AC50 [3]: > 30 µM
AC50 (Melanocortin receptor 3): > 30 µM
AC50 [4]: 22 µM

COc1ccc2c3c1O[C@H]1[C@@H](O)C=C[C@H]4[C@@H](C2)N(C)CC[C@@]341 [CODEINE]
AC50 [1]: > 10 µM
AC50 (Thromboxane A2 receptor): > 30 µM
AC50 (Cannabinoid receptor 1): > 30 µM
AC50 [2]: > 10 µM
AC50 (Estrogen receptor): > 30 µM
AC50 [3]: > 10 µM
AC50 (Melanocortin receptor 3): > 30 µM
AC50 [4]: > 10 µM

CC(C[N+](C)(C)C)OC(N)=O (stereo unspecified) [BETHANECHOL]
AC50 [1]: > 10 µM
AC50 (Thromboxane A2 receptor): > 10 µM
AC50 (Cannabinoid receptor 1): > 30 µM
AC50 [2]: > 10 µM
AC50 (Estrogen receptor): > 10 µM
AC50 [3]: > 10 µM
AC50 (Melanocortin receptor 3): > 10 µM

OC(CNCC(O)C1CCc2cc(F)ccc2O1)C1CCc2cc(F)ccc2O1 (stereo unspecified) [NEBIVOLOL]
AC50 [1]: > 30 µM
AC50 (Thromboxane A2 receptor): > 30 µM
AC50 (Cannabinoid receptor 1): 24 µM
AC50 [2]: 19 µM
AC50 (Estrogen receptor): > 30 µM
AC50 [3]: 24 µM
AC50 (Melanocortin receptor 3): 8.7 µM

COc1ccc2c3c1O[C@H]1C(=O)CC[C@@]4(O)[C@@H](C2)N(C)CC[C@]314 [OXYCODONE]
AC50 [1]: > 30 µM
AC50 (Thromboxane A2 receptor): > 30 µM
AC50 (Cannabinoid receptor 1): > 30 µM
AC50 [2]: > 30 µM
AC50 (Estrogen receptor): > 30 µM
AC50 [3]: > 30 µM
AC50 (Melanocortin receptor 3): > 30 µM

CC(=O)O[C@H]1C[C@@H]2CC[C@@H]3[C@H](CC[C@@]4(C)[C@H]3C[C@H]([N+]3(C)CCCCC3)[C@@H]4OC(C)=O)[C@@]2(C)C[C@@H]1N1CCCCC1 [VECURONIUM]
AC50 [1]: > 30 µM
AC50 (Thromboxane A2 receptor): > 30 µM
AC50 (Cannabinoid receptor 1): > 30 µM
AC50 (Estrogen receptor): > 30 µM
AC50 [3]: > 30 µM
AC50 (Melanocortin receptor 3): > 30 µM

CCN1CCN(C(=O)N[C@@H](C(=O)N[C@@H]2C(=O)N3C(C(=O)O)=C(CSc4nnnn4C)CS[C@H]23)c2ccc(O)cc2)C(=O)C1=O [CEFOPERAZONE]
AC50 [1]: > 30 µM
AC50 (Cannabinoid receptor 1): > 30 µM
AC50 [2]: > 30 µM
AC50 (Estrogen receptor): > 30 µM
AC50 (Melanocortin receptor 3): > 30 µM
AC50 [4]: > 30 µM

CC=CC(=O)N(CC)c1ccccc1C
AC50 [1]: > 10 µM
AC50 (Thromboxane A2 receptor): > 10 µM
AC50 (Cannabinoid receptor 1): > 30 µM
AC50 (Estrogen receptor): > 10 µM
AC50 [3]: > 10 µM
AC50 (Melanocortin receptor 3): > 10 µM

CCCCCCOc1ccccc1C(N)=O [EXALAMIDE]
AC50 [1]: > 30 µM
AC50 (Thromboxane A2 receptor): > 30 µM
AC50 (Cannabinoid receptor 1): > 30 µM
AC50 [2]: > 30 µM
AC50 (Estrogen receptor): > 30 µM
AC50 [3]: > 30 µM
AC50 (Melanocortin receptor 3): > 30 µM
